{
  "source": "patent US20230136600A1",
  "about": "“Method and device for screening antigen epitope polypeptide” (priority 2020, published 2023)",
  "key": {"[1]": {"system": "novel coronavirus (live coronavirus), vero cells", "assay": "In-vitro live virus neutralization experiment with serum of immunized mice (CPE method)", "assay_type": "in vivo, SARS-CoV-2"}, "Balb/c mice": {"system": "Balb/c mice", "assay": "Polypeptide chip-based vaccine immunogenicity scoring system", "assay_type": "in vivo", "set-up": "key to A2: whether the 95 percentile of the last sampling is increased compared with the end point: Y = rise; N = no rise", "conditions": "for A: 95 percentile grouping number score / B: Mouse performance score: total score = 5"}, "[2]": {"conditions": "Embodiment III, polypeptide-KLH"}, "[3]": {"conditions": "Embodiment III, polypeptide-KLH, Mix1-10"}, "[4]": {"conditions": "Embodiment III, polypeptide-KLH, value of the whole mix"}, "[5]": {"conditions": "adjuvant AddaVax, 7 peptides co-immunized in mice"}, "[6]": {"conditions": "adjuvant Adju-Phos, 7 peptides co-immunized in mice"}, "[7]": {"conditions": "adjuvant Alhydrogel, 7 peptides co-immunized in mice"}, "[8]": {"conditions": "adjuvant Imjet Alumn, 7 peptides co-immunized in mice"}, "[9]": {"conditions": "adjuvant MA103A, 7 peptides co-immunized in mice"}, "[10]": {"conditions": "adjuvant MA103B, 7 peptides co-immunized in mice"}},
  "data": [
    {"sequence": "SNLKPFER (SARS-CoV-2) [SEQ ID NO:36]", "values": [
      {"measurement": "Neutralizing antibody positive rate (%)", "setting": "[1]; Embodiment I: single peptide 100 μg + MF59 at Day 0, 14, 28, Balb/c mice, serum Day 35", "value": 40, "unit": "%"},
      {"measurement": "Neutralizing activity of serum to the novel coronavirus (in words)", "setting": "[1]; Embodiment I: single peptide vaccines + MF59", "value": "optimal neutralization effect"},
      {"measurement": "A2: whether the 95 percentile of the last sampling is increased compared with the end point", "setting": "Balb/c mice; Embodiment II, Combination 2", "value": "Y"},
      {"measurement": "B1: D 0-D 14 95 percentile rise in the number of mice", "setting": "Balb/c mice; Embodiment II, Combination 2", "value": 5},
      {"measurement": "B2: D 0-D 21 95 percentile rise in the number of mice", "setting": "Balb/c mice; Embodiment II, Combination 2", "value": 5},
      {"measurement": "B3: D 14-D 21 95 percentile rise in the number of mice", "setting": "Balb/c mice; Embodiment II, Combination 2", "value": 0},
      {"measurement": "B4: D 21-D 28 95 percentile rise in the number of mice", "setting": "Balb/c mice; Embodiment II, Combination 2", "value": 2},
      {"measurement": "Total single peptide", "setting": "Balb/c mice; Embodiment II, Combination 2, A*3 + B*2 + C*1", "value": 11.8},
      {"measurement": "A: 95 percentile grouping number score", "setting": "Balb/c mice; Embodiment II, Combination 2", "value": 1.5},
      {"measurement": "B: Mouse performance score", "setting": "Balb/c mice; Embodiment II, Combination 2", "value": 3.4},
      {"measurement": "A1: difference between a highest median and a D 0 median (95 percentile)", "setting": "Balb/c mice; Embodiment II, mice immunized with Combination 2", "value": 0.1},
      {"measurement": "B1: D 0-D 14 95 percentile rise in the number of mice", "setting": "Balb/c mice; [2]", "value": 3},
      {"measurement": "B2: D 0-D 21 95 percentile rise in the number of mice", "setting": "Balb/c mice; [2]", "value": 2},
      {"measurement": "B3: D 14-D 21 95 percentile rise in the number of mice", "setting": "Balb/c mice; [2]", "value": 0},
      {"measurement": "B4: D 21-D 28 95 percentile rise in the number of mice", "setting": "Balb/c mice; [2]", "value": 2},
      {"measurement": "A1: difference between a highest median and a D 0 median (95 percentile)", "setting": "Balb/c mice; [3]", "value": 0.10},
      {"measurement": "A2: whether the 95 percentile of the last sampling is increased compared with the end point", "setting": "Balb/c mice; [3]", "value": "Y"},
      {"measurement": "Total single peptide", "setting": "Balb/c mice; Embodiment III, polypeptide-KLH, A*3 + B*2 + C*1", "value": 17.4},
      {"measurement": "A: 95 percentile grouping number score", "setting": "Balb/c mice; [2]", "value": 4.5},
      {"measurement": "B: Mouse performance score", "setting": "Balb/c mice; [2]", "value": 1.7},
      {"measurement": "C1: #A timing-sequence response peptide fragment set", "setting": "Balb/c mice; [4]", "value": 511},
      {"measurement": "C2: #B vaccine specificity peptide fragment set", "setting": "Balb/c mice; [4]", "value": 364},
      {"measurement": "C3: Intersection of A and B", "setting": "Balb/c mice; [4]", "value": 1},
      {"measurement": "C4: Percentage of the intersection in set B", "setting": "Balb/c mice; [4]", "value": 0.275},
      {"measurement": "C: Timing-sequence response and specificity score", "setting": "Balb/c mice; [4]", "value": 0.5},
      {"measurement": "1) 95 percentile grouping number A", "setting": "Balb/c mice; [5]", "value": 3.5},
      {"measurement": "1) 95 percentile grouping number A1", "setting": "Balb/c mice; [5]", "value": 0.04},
      {"measurement": "2) Mouse performance B", "setting": "Balb/c mice; [5]", "value": 2.5},
      {"measurement": "2) Mouse performance B1", "setting": "Balb/c mice; [5]", "value": 3},
      {"measurement": "2) Mouse performance B2", "setting": "Balb/c mice; [5]", "value": 4},
      {"measurement": "2) Mouse performance B3", "setting": "Balb/c mice; [5]", "value": 2},
      {"measurement": "3) Timing-sequence response and specificity C", "setting": "Balb/c mice; [5]", "value": 0},
      {"measurement": "3) Timing-sequence response and specificity C1", "setting": "Balb/c mice; [5]", "value": 237},
      {"measurement": "3) Timing-sequence response and specificity C2", "setting": "Balb/c mice; [5]", "value": 1244},
      {"measurement": "3) Timing-sequence response and specificity C3", "setting": "Balb/c mice; [5]", "value": 0},
      {"measurement": "3) Timing-sequence response and specificity C4", "setting": "Balb/c mice; [5]", "value": 0.000},
      {"measurement": "Total single peptide", "setting": "Balb/c mice; [5]", "value": 15.5},
      {"measurement": "1) 95 percentile grouping number A", "setting": "Balb/c mice; [6]", "value": 3.5},
      {"measurement": "1) 95 percentile grouping number A1", "setting": "Balb/c mice; [6]", "value": 0.05},
      {"measurement": "2) Mouse performance B", "setting": "Balb/c mice; [6]", "value": 1.8},
      {"measurement": "2) Mouse performance B1", "setting": "Balb/c mice; [6]", "value": 2},
      {"measurement": "2) Mouse performance B2", "setting": "Balb/c mice; [6]", "value": 2},
      {"measurement": "2) Mouse performance B3", "setting": "Balb/c mice; [6]", "value": 2},
      {"measurement": "3) Timing-sequence response and specificity C", "setting": "Balb/c mice; [6]", "value": 0},
      {"measurement": "3) Timing-sequence response and specificity C1", "setting": "Balb/c mice; [6]", "value": 203},
      {"measurement": "3) Timing-sequence response and specificity C2", "setting": "Balb/c mice; [6]", "value": 1244},
      {"measurement": "3) Timing-sequence response and specificity C3", "setting": "Balb/c mice; [6]", "value": 0},
      {"measurement": "3) Timing-sequence response and specificity C4", "setting": "Balb/c mice; [6]", "value": 0.000},
      {"measurement": "Total single peptide", "setting": "Balb/c mice; [6]", "value": 14.1},
      {"measurement": "1) 95 percentile grouping number A", "setting": "Balb/c mice; [7]", "value": 0},
      {"measurement": "1) 95 percentile grouping number A1", "setting": "Balb/c mice; [7]", "value": 0},
      {"measurement": "2) Mouse performance B", "setting": "Balb/c mice; [7]", "value": 1.9},
      {"measurement": "2) Mouse performance B1", "setting": "Balb/c mice; [7]", "value": 3},
      {"measurement": "2) Mouse performance B2", "setting": "Balb/c mice; [7]", "value": 1},
      {"measurement": "2) Mouse performance B3", "setting": "Balb/c mice; [7]", "value": 2},
      {"measurement": "3) Timing-sequence response and specificity C", "setting": "Balb/c mice; [7]", "value": 1},
      {"measurement": "3) Timing-sequence response and specificity C1", "setting": "Balb/c mice; [7]", "value": 123},
      {"measurement": "3) Timing-sequence response and specificity C2", "setting": "Balb/c mice; [7]", "value": 1244},
      {"measurement": "3) Timing-sequence response and specificity C3", "setting": "Balb/c mice; [7]", "value": 2},
      {"measurement": "3) Timing-sequence response and specificity C4", "setting": "Balb/c mice; [7]", "value": 0.161},
      {"measurement": "Total single peptide", "setting": "Balb/c mice; [7]", "value": 4.3},
      {"measurement": "1) 95 percentile grouping number A", "setting": "Balb/c mice; [8]", "value": 4.5},
      {"measurement": "1) 95 percentile grouping number A1", "setting": "Balb/c mice; [8]", "value": 0.065},
      {"measurement": "2) Mouse performance B", "setting": "Balb/c mice; [8]", "value": 2.5},
      {"measurement": "2) Mouse performance B1", "setting": "Balb/c mice; [8]", "value": 5},
      {"measurement": "2) Mouse performance B2", "setting": "Balb/c mice; [8]", "value": 3},
      {"measurement": "2) Mouse performance B3", "setting": "Balb/c mice; [8]", "value": 1},
      {"measurement": "3) Timing-sequence response and specificity C", "setting": "Balb/c mice; [8]", "value": 1},
      {"measurement": "3) Timing-sequence response and specificity C1", "setting": "Balb/c mice; [8]", "value": 100},
      {"measurement": "3) Timing-sequence response and specificity C2", "setting": "Balb/c mice; [8]", "value": 1244},
      {"measurement": "3) Timing-sequence response and specificity C3", "setting": "Balb/c mice; [8]", "value": 3},
      {"measurement": "3) Timing-sequence response and specificity C4", "setting": "Balb/c mice; [8]", "value": 0.241},
      {"measurement": "Total single peptide", "setting": "Balb/c mice; [8]", "value": 19},
      {"measurement": "1) 95 percentile grouping number A", "setting": "Balb/c mice; [9]", "value": 4.5},
      {"measurement": "1) 95 percentile grouping number A1", "setting": "Balb/c mice; [9]", "value": 0.065},
      {"measurement": "2) Mouse performance B", "setting": "Balb/c mice; [9]", "value": 2.4},
      {"measurement": "2) Mouse performance B1", "setting": "Balb/c mice; [9]", "value": 4},
      {"measurement": "2) Mouse performance B2", "setting": "Balb/c mice; [9]", "value": 4},
      {"measurement": "2) Mouse performance B3", "setting": "Balb/c mice; [9]", "value": 1},
      {"measurement": "3) Timing-sequence response and specificity C", "setting": "Balb/c mice; [9]", "value": 1},
      {"measurement": "3) Timing-sequence response and specificity C1", "setting": "Balb/c mice; [9]", "value": 260},
      {"measurement": "3) Timing-sequence response and specificity C2", "setting": "Balb/c mice; [9]", "value": 1244},
      {"measurement": "3) Timing-sequence response and specificity C3", "setting": "Balb/c mice; [9]", "value": 3},
      {"measurement": "3) Timing-sequence response and specificity C4", "setting": "Balb/c mice; [9]", "value": 0.241},
      {"measurement": "Total single peptide", "setting": "Balb/c mice; [9]", "value": 18.8},
      {"measurement": "1) 95 percentile grouping number A", "setting": "Balb/c mice; [10]", "value": 5},
      {"measurement": "1) 95 percentile grouping number A1", "setting": "Balb/c mice; [10]", "value": 0.06},
      {"measurement": "2) Mouse performance B", "setting": "Balb/c mice; [10]", "value": 3.2},
      {"measurement": "2) Mouse performance B1", "setting": "Balb/c mice; [10]", "value": 4},
      {"measurement": "2) Mouse performance B2", "setting": "Balb/c mice; [10]", "value": 4},
      {"measurement": "2) Mouse performance B3", "setting": "Balb/c mice; [10]", "value": 3},
      {"measurement": "3) Timing-sequence response and specificity C", "setting": "Balb/c mice; [10]", "value": 0},
      {"measurement": "3) Timing-sequence response and specificity C1", "setting": "Balb/c mice; [10]", "value": 153},
      {"measurement": "3) Timing-sequence response and specificity C2", "setting": "Balb/c mice; [10]", "value": 1244},
      {"measurement": "3) Timing-sequence response and specificity C3", "setting": "Balb/c mice; [10]", "value": 0},
      {"measurement": "3) Timing-sequence response and specificity C4", "setting": "Balb/c mice; [10]", "value": 0.000},
      {"measurement": "Total single peptide", "setting": "Balb/c mice; [10]", "value": 21.4}
    ]}
  ]
}
